This passage reports IC50 and inhibition results from patent publication EP0934259B1, “BETA-SULFONAMIDO HYDROXAMIC ACIDS AS MATRIX METALLOPROTEINASE AND TACE INHIBITORS” (American Cyanamid Company, priority 1996, dated 1998).

Format in all cases: biochemical
The target in assay [1] is T1, MMP-1 (Homo sapiens, UniProt P03956).
T1 sequence (P03956 100-469): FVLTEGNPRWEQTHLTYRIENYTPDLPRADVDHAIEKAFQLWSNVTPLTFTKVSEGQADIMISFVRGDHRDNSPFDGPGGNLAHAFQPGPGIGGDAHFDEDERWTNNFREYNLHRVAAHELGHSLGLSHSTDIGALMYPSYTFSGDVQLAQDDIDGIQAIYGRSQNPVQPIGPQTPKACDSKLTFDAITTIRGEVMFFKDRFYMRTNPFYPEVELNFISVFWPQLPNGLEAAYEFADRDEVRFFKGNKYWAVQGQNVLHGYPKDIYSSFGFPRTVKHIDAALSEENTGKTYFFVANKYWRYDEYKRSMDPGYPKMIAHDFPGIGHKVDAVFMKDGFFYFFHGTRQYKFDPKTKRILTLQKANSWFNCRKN
Description: MMP-1 inhibition (thiopeptide or fluorescent peptide substrate assay). The method, then:
(§1) These assays are based on the cleavage of a thiopeptide substrates such as Ac-Pro-Leu-Gly(2-mercapto-4-methyl-pentanoyl)-Leu-Gly-OEt by the matrix metalloproteinases MMP-1, MMP-13 (collagenases) or MMP-9 (gelatinase), which results in the release of a substrate product that reacts colorimetrically with DTNB (5,5'-dithiobis(2-nitro-benzoic acid)). The enzyme activity is measured by the rate of the color increase. The thiopeptide substrate is made up fresh as a 20 mM stock in 100% DMSO and the DTNB is dissolved in 100% DMSO as a 100 mM stock and stored in the dark at room temperature. […] The assay buffer, enzyme, vehicle or inhibitor, and DTNB/substrate are added in this order to a 96 well plate (total reaction volume of 200 µl) and the increase in color is monitored spectrophotometrically for 5 minutes at 405 nm on a plate reader and the increase in color over time is plotted as a linear line.
(§2) Alternatively, a fluorescent peptide substrate is used. […] Upon cleavage of the substrate by an MMP, the fluorescence that is generated is quantitated on the fluorescence plate reader. […] The reaction is read (excitation 340 nm, emission 444 nm) for 10 min, and the increase in fluorescence over time is plotted as a linear line.
(§3) For either the thiopeptide or fluorescent peptide assays, the slope of the line is calculated and represents the reaction rate. […]

Assay [2] concerns the target MMP-9 (Homo sapiens, UniProt P14780). Description: MMP-9 inhibition (thiopeptide or fluorescent peptide substrate assay). The method, then: as §1, §2, §3
Assay [3] deals with T2, TACE (Homo sapiens, UniProt P78536).
T2 construct: purchased Immunex
In words: TACE inhibition (fluorescent peptidyl substrate assay). The method, then: Using 96-well black microtiter plates, each well receives a solution composed of 10 µL TACE (Immunex, final concentration 1µg/mL), 70µL Tris buffer, pH 7.4 containing 10% glycerol (final concentration 10 mM), and 10 µL of test compound solution in DMSO (final concentration 1µM, DMSO concentration <1%) and incubated for 10 minutes at room temperature. The reaction is initiated by addition of a fluorescent peptidyl substrate (final concentration 100 µM) to each well and then shaking on a shaker for 5 sec.
The reaction is read (excitation 340 nm, emission 420 nm) for 10 min. and the increase in fluorescence over time is plotted as a linear line. The slope of the line is calculated and represents the reaction rate.
The linearity of the reaction rate is confirmed (r^2 >0.85). The mean (x±sem) of the control rate is calculated and compared for statistical significance (p<0.05) with drug-treated rates using Dunnett's multiple comparison test. Dose-response relationships can be generate using multiple doses of drug and IC50 values with 95% CI are estimated using linear regression.

In general, IC50 refers to the point on the concentration scale where inhibition reaches its midpoint. Low values mean inhibition by little substance, high ones a need for much substance.

MMP-9, sequence (P14780 94-707): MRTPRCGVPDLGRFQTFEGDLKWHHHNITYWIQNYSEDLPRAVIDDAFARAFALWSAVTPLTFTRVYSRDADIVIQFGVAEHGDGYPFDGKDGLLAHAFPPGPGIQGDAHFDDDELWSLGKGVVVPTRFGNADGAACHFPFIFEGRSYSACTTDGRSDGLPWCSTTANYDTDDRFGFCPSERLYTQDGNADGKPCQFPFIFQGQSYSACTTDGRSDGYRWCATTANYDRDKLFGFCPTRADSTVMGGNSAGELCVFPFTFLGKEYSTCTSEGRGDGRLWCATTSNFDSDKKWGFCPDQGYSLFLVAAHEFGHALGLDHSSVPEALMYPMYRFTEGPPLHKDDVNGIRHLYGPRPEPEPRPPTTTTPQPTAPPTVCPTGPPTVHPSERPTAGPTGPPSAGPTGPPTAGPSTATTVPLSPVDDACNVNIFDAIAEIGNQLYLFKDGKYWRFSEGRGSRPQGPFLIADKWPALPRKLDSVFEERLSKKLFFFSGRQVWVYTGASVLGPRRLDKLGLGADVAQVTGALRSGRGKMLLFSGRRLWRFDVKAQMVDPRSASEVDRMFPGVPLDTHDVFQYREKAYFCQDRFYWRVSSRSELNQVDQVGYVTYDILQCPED
T2 sequence (P78536 215-824): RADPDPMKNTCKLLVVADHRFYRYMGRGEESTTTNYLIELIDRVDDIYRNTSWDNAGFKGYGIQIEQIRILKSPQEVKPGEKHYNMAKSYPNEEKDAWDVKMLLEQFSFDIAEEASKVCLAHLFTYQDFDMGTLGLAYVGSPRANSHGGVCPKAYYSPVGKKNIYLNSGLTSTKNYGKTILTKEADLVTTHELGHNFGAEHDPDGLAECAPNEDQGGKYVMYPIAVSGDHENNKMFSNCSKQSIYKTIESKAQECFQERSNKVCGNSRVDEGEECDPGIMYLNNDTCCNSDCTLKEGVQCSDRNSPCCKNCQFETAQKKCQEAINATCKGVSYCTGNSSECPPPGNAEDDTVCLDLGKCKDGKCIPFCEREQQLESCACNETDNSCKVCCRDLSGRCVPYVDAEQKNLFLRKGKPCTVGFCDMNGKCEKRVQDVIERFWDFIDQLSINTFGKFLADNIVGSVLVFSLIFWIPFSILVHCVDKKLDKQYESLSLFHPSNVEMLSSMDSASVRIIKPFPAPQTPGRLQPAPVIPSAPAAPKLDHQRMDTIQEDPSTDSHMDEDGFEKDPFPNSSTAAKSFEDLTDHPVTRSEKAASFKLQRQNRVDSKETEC

With `COc1ccc(S(=O)(=O)N(Cc2ccccc2)[C@@H]2CCCC[C@H]2C(=O)NO)cc1` (relative stereo) [Example 9, (trans)-2-[Benzyl-(4-methoxy-benzenesulfonyl)-amino]-cyclohexanecarboxylic acid hydroxyamide], the figures for the IC50 in assay [1], in assay [2] and in assay [3] were 176 nM, 181 nM and 1610 nM, respectively.

Take `COc1ccc(S(=O)(=O)N(Cc2ccccc2)[C@H]2CCCC[C@H]2C(=O)NO)cc1` (relative stereo) [Example 10, (cis)-2-[Benzyl-(4-methoxy-benzenesulfonyl)-amino]-cyclohexanecarboxylic acid hydroxyamide]: the IC50 was 616 nM in assay [1] and 275 nM in assay [2]. The inhibition at 1 µM in assay [3] (read-out: TACE % inhibition at 1 µM concentration) was found to be 24%.
